Key:
[1] = system: wildtype Wnt signaling cascade; test: HEK293 TOP assay (Super TopFlash luciferase reporter, Wnt-3a stimulated); type: cell-based; details: Homo sapiens, HEK293, 16 h, HEK293 TOP reporter cells, Wnt3a at EC50, 16 hours
From the text: 7.1 Measurement of the Inhibitory Activity of Selected Compounds on the Wildtype Wnt Signaling Cascade: HEK293 TOP/FOP Assay
In order to discover and characterize small molecules which inhibit the wildtype Wnt pathway, a cellular reporter assay was employed. The corresponding assay cell was generated by transfection of the mammalian cell line HEK293 (ATCC, #CRL-1573) with the Super TopFlash vector (Morin, Science 275, 1997, 1787-1790; Molenaar et al., Cell 86 (3), 1996, 391-399). The HEK293 cell line is cultivated at 37° C. and 5% CO2 in DMEM (Life Technologies, #41965-039), supplemented with 2 mM glutamine, 20 mM HEPES, 1.4 mM pyruvate, 0.15% Na-bicarbonate and 10% foetal bovine serum (GIBCO, #10270). Stable transfectants were generated by selection with 300 μg/ml Hygromycin.
(§1) In preparation of the assay, the two cell lines were plated 24 h before beginning the test at 10000 cells per well in a 384 micro titre plate (MTP) in 30 μl growth medium. […] The recombinant human Wnt-3a was thereby applied between 2500 and 5 ng/ml in two-fold dilution steps.
(§2) Selective inhibitory activity for small molecules on the wildtype Wnt pathway was determined after parallel incubation of both (TOP and FOP) HEK293 reporter cell lines with a compound dilution series from 50 μM to 15 nM in steps of 3.16-fold dilutions in CAFTY buffer (130 mM sodium chloride, 5 mM potassium chloride, 20 mM HEPES, 1 mM magnesium chloride, 5 mM sodium bicarbonate, pH 7.4) containing 2 mM Ca^2+ and 0.01% BSA.
(§3) The compounds were thereby serially prediluted in 100% DMSO and thereafter 50 fold into the CAFTY compound dilution buffer (described above).

[2] = system: HEK293 cells cotransfected with the FOP control vector; test: HEK293 FOP assay (control reporter with non-functional TCF elements); type: cell-based; details: Homo sapiens, 16 hours
Method: In a parallel approach, HEK293 cells were cotransfected with the FOP control vector and pcDNA3. The FOP vector is identical to the TOP construct, but it contains instead of functional TCF elements a randomized, non-functional sequence. For this transfection a stable transfected cell line was generated as well, based on selection with Geneticin (1 mg/ml).
as §1, §2, §3

TNKS2 = target: T1, TNKS2 (Homo sapiens, UniProt Q9H2K2); test: TNKS2 Assay B (auto-parsylation, [3H]-NAD+ SPA); type: biochemical; details: 6 nM TNKS2, auto-parsylation, over night at room temperature
T1 construct: purchased BPS Bioscience, San Diego, USA 80572 (TNKS2 Histone Ribosylation Assay Kit)
T1 sequence (Q9H2K2 1-1166): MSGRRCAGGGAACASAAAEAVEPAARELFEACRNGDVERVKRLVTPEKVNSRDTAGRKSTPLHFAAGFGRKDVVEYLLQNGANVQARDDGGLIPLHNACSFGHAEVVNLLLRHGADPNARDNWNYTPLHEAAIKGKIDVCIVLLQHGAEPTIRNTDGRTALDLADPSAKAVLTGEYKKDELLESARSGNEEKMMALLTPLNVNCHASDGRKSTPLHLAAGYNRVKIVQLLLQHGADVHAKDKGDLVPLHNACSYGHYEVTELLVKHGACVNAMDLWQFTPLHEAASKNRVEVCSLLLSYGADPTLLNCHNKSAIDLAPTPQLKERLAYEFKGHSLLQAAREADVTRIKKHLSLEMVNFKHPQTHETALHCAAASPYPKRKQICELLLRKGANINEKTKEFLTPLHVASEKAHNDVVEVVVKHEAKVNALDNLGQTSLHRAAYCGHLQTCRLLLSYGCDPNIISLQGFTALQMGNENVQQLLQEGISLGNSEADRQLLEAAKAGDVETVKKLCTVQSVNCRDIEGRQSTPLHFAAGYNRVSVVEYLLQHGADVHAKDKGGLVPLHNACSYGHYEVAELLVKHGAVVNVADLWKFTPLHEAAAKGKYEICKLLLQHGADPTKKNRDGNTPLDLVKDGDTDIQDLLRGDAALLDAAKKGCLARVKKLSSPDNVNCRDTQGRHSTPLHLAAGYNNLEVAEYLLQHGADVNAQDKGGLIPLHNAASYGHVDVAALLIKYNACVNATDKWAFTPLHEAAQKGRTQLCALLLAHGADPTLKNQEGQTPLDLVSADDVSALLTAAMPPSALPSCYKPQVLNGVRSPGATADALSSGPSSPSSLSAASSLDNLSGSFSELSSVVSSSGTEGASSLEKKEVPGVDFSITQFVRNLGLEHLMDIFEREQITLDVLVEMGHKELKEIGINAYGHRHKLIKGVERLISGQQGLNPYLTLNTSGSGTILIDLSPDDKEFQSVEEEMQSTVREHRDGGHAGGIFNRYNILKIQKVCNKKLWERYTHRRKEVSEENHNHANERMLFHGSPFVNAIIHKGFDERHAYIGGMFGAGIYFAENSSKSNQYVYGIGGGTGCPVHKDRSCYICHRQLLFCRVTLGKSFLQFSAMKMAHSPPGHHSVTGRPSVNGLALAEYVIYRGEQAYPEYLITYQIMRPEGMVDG
Method: The potency of selected compounds according to the invention was assessed applying a modified in vitro inhibition assay. Here, the TNKS2 catalyzed NAD^+-dependent ribosylation of the enzyme itself (auto-parsylation) was detected using [^3H]-NAD^+ as substrate and applying the scintillation proximity assay (SPA) method to detect tritium-labeled, parsylated TNKS2. The intensity of the readout signal is proportional to the incorporated [^3H]-NAD^+. Inhibition of TNKS2 leads to a decreased incorporation of [^3H]-NAD^+ and consequently to a lower readout signal intensity. The concentration of a test compound which inhibits the enzyme activity by 50% (corresponds to half of the normed readout signal intensity) is reported as IC50.
Protocol Auto-Parsylation Assay
The assay was conducted in a 96 well MTP format with the identical TNKS2 enzyme sample and NAD^+ sample as in the histone ribosylation assay with the following modifications: TNKS2 enzyme sample was diluted with a modified assay buffer (50 mM MES pH 7.0, 1 mM DTT, 0.01% Triton X-100) to a final concentration of 6 nM TNKS2 and 10×NAD^+ solution was diluted with the modified assay buffer (s. above) to a final 0.445×NAD^+ solution doped with 100 Bq/μl [^3H]-NAD^+[Catalog #NET443H050UC, Perkin Elmer, Waltham, Mass., USA]. Substrate solution (10 μl) was incubated with different test compound concentrations (2.5 μl in 10% DMSO in modified assay buffer) or control (2.5 μl 10% DMSO in modified assay buffer only) and enzyme (10 μl) over night at room temperature. Incorporated tritium was measured after addition of 50 ul SPA beads (1 mg/ml) [Catalog #RPNQ0095 20 mg/ml, Perkin Elmer, Waltham, Mass., USA; diluted 1:10 with Dulbecco's phosphate buffered saline, PBS Catalog #D8537, Sigma-Aldrich, Steinheim, Germany] and detection of the photon emission with a beta count plate reader [Wallac MicroBeta®, Perkin Elmer, Waltham, Mass., USA].

IC50 [1] [µM] | IC50 (TNKS2) [µM] | Structure (SMILES) | IC50 [2] [µM]
0.097 | 0.93 | O=C(N[C@H]1CC[C@@]2(CCCN(c3cc(F)c(F)cc3Cl)C2=O)CC1)c1[nH]cnc1C(=O)N1CCOCC1 [Example 323, N-[(trans)-2-(2-chloro-4,5-difluorophenyl)-1-oxo-2-azaspiro[5.5]undec-9-yl]-4-(morpholin-4-ylcarbonyl)-1H-imidazole-5-carboxamide] | ≥ 50
0.0049 | 0.0086 | Cc1cc(N2CC[C@]3(CC[C@@H](NC(=O)c4[nH]cnc4C(N)=O)CC3)C2=O)c(Cl)cc1F [Example 291, N^5-[(trans)-2-(2-chloro-4-fluoro-5-methylphenyl)-1-oxo-2-azaspiro[4.5]dec-8-yl]-1H-imidazole-4,5-dicarboxamide] | ≥ 50
0.004 | 0.021 | O=C(N[C@H]1CC[C@@]2(CCN(c3ccc(F)cc3Cl)C2=O)CC1)c1cn(CCO)c2cccnc12 [Example 344, N-[(trans)-2-(2-chloro-4-fluorophenyl)-1-oxo-2-azaspiro[4.5]dec-8-yl]-1-(2-hydroxyethyl)-1H-pyrrolo[3,2-b]pyridine-3-carboxamide] | ≥ 50
0.44 | 4.3 | CN1CCN(C(=O)c2nc[nH]c2C(=O)N[C@H]2CC[C@@]3(CCN(c4cccc(Cl)c4)C3=O)CC2)CC1 [Example 283, N-[(trans)-2-(3-chlorophenyl)-1-oxo-2-azaspiro[4.5]dec-8-yl]-4-[(4-methylpiperazin-1-yl)carbonyl]-1H-imidazole-5-carboxamide] | 20
0.059 | 0.53 | O=C(N[C@H]1CC[C@@]2(CCN(c3ccccn3)C2=O)CC1)c1cnn2cccnc12 [Example 346, N-[(trans)-1-oxo-2-(pyridin-2-yl)-2-azaspiro[4.5]dec-8-yl]pyrazolo[1,5-a]pyrimidine-3-carboxamide] | ≥ 50
3.1 | > 10 | CCNC(=O)c1nc[nH]c1C(=O)N[C@H]1CC[C@]2(CCN(c3ccc(F)cc3Cl)C2=O)CC1 [Example 339, N^5-[(cis)-2-(2-chloro-4-fluorophenyl)-1-oxo-2-azaspiro[4.5]dec-8-yl]-N^4-ethyl-1H-imidazole-4,5-dicarboxamide] | ≥ 50
0.027 | 0.0094 | NC(=O)c1nc[nH]c1C(=O)N[C@H]1CC[C@@]2(CCCN(c3cc(F)c(F)cc3Cl)C2=O)CC1 [Example 320, N^5-[(trans)-2-(2-chloro-4,5-difluorophenyl)-1-oxo-2-azaspiro[5.5]undec-9-yl]-1H-imidazole-4,5-dicarboxamide] | ≥ 50
0.0012 | 0.02 | O=C(N[C@H]1CC[C@@]2(CCN(c3ccc(F)cc3Cl)C2=O)CC1)c1c[nH]c2nccnc12 [Example 350, N-[(trans)-2-(2-chloro-4-fluorophenyl)-1-oxo-2-azaspiro[4.5]dec-8-yl]-5H-pyrrolo[2,3-b]pyrazine-7-carboxamide] | ≥ 50

Second part, the molecule before the results:

Structure (SMILES) | IC50 [1] [µM] | IC50 (TNKS2) [µM] | IC50 [2] [µM]
Cn1nc(C(=O)N[C@H]2CC[C@H](C(=O)Nc3ccc(F)cc3Cl)CC2)c2ccccc21 [Example 249, N-{trans-4-[(2-chloro-4-fluorophenyl)carbamoyl]cyclohexyl}-1-methyl-1H-indazole-3-carboxamide] | 14 | > 10 | ≥ 50
Cn1nc2ccccc2c1C(=O)N[C@H]1CC[C@H](C(=O)Nc2ccc(F)cc2Cl)CC1 [Example 250, N-{trans-4-[(2-chloro-4-fluorophenyl)carbamoyl]cyclohexyl}-2-methyl-2H-indazole-3-carboxamide] | ≥ 50 | > 10 | ≥ 50
O=C(N[C@H]1CC[C@@]2(CCN(c3ccc(F)cc3Cl)C2=O)CC1)c1cnc2ccccn12 [Example 223, N-[(trans)-2-(2-chloro-4-fluorophenyl)-1-oxo-2-azaspiro[4.5]dec-8-yl]imidazo[1,2-a]pyridine-3-carboxamide] | 0.27 | 1.2 | ≥ 50
O=C(N[C@H]1CC[C@H](C(=O)Nc2ccc(F)cc2Cl)CC1)c1n[nH]c2ccc(F)cc12 [Example 254, N-{trans-4-[(2-chloro-4-fluorophenyl)carbamoyl]cyclohexyl}-5-fluoro-1H-indazole-3-carboxamide] | 10 | > 10 | ≥ 50
O=C(N[C@H]1CC[C@@]2(CCN(c3ccc(F)cc3Cl)C2=O)CC1)c1[nH]cnc1C(=O)N1CC2(COC2)C1 [Example 194, N-[(trans)-2-(2-chloro-4-fluorophenyl)-1-oxo-2-azaspiro[4.5]dec-8-yl]-4-(2-oxa-6-azaspiro[3.3]hept-6-ylcarbonyl)-1H-imidazole-5-carboxamide] | 0.0015 | 0.0048 | ≥ 50
O=C(N[C@H]1CC[C@@]2(CCN(c3ccc(F)cc3Cl)C2=O)CC1)c1n[nH]c2cccnc12 [Example 228, N-[(trans)-2-(2-chloro-4-fluorophenyl)-1-oxo-2-azaspiro[4.5]dec-8-yl]-1H-pyrazolo[4,3-b]pyridine-3-carboxamide] | 0.06 | 0.42 | ≥ 0.5
